What was measured:
[1] = target: T1, recombinant human FAP (rhFAP) (Homo sapiens, UniProt Q12884); test: Inhibition of FAP-mediated digestion of FGF21 in vitro; format: biochemical
T1 construct: purchased R&D systems 3715-SE-010
T1 sequence (Q12884 1-760): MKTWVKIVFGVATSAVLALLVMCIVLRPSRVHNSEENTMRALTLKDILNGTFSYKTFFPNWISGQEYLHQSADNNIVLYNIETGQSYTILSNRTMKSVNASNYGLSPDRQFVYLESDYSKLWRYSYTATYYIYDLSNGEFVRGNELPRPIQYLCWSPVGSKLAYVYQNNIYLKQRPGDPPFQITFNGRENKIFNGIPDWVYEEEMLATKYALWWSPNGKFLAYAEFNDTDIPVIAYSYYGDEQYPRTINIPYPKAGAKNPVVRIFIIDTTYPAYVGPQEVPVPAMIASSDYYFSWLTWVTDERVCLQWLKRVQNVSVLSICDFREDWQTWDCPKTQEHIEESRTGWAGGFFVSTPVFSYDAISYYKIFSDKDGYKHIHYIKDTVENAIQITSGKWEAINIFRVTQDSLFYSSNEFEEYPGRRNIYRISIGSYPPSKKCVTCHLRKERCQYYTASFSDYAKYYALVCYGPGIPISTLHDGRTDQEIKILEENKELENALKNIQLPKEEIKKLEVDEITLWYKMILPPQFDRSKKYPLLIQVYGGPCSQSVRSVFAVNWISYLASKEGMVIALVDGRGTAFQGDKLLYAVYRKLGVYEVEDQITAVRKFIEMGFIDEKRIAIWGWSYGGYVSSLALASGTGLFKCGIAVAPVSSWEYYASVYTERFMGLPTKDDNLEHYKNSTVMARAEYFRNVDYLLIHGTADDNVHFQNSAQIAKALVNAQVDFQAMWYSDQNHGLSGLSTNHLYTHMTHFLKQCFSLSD
Procedure: Recombinant human FGF21 (rhFGF21; Cat. No. #2539-FG-025/CF, R&D systems) was incubated overnight (16 h) at 37° C. with recombinant human FAP (rhFAP; Cat. No. #3715-SE-010, R&D systems) in digestion buffer (50 mM Tris pH 7.4, 100 mM NaCl, 0.1 mg/ml bovine serum albumin). Reactions were carried out at final concentrations of 1000 ng/mL hFGF21 and 400, 800 or 1200 ng/mL rhFAP in a volume of 100 μL. For SDS-PAGE analysis, after incubation each sample received immediately 4× Laemmli protein sample buffer (Cat. No. #161-0747, Bio-Rad) supplemented with 0.1 ml […]/10 ml aliquot and then boiled at 95° C. during 10 min. An aliquot of 15 μL of each sample were then loaded onto a reducing 20% Tris-Tricine SDS-PAGE gel. For immunoblot analysis, proteins were separated on SDS-PAGE gels and transferred to PVDF membranes (Cat. No. #1620177, Bio-Rad). […] Proteins were detected using the ECL Western Blotting Substrate (Cat. No. #32106, Thermo Fisher Scientific) and visualized using a ChemiDoc™ Imaging System (Biorad) and Image lab software v5.2.1 build 11. […]
Additionally, the IC50 for FAP-mediated proteolytic cleavage of FGF21, was determined in the using a serial dilution of compound 13 (an exemplary compound).

[2] = tested on: MC38 mouse colon cancer cell line; test: Tumor inhibition in vivo (MC38 tumor in C57/BL6 mice); conditions: 50 mg/kg orally twice daily from day 7 to day 22; no statistical significance observed
Procedure: Female C57/BL6 mice (approximately 8-9 weeks old; 20-21 gr) obtained from the vivarium of Fundación Ciencia & Vida (Santiago, Chile) were maintained in a temperature-controlled room with 12/12 hour light/dark schedule with food and water ad libitum. The mice were acclimated for a minimum period of 4 days upon arrival at the testing facility.
MC38 mouse colon cancer cell line was maintained as monolayer culture in DMEM-F12 (Cat. No.: SH30023.01, Hyclone) supplemented with 10% fetal bovine serum (Cat. No.: 16000, Gibco) and penicillin/streptomycin (Cat. No.: 15140122, Gibco) at 37° C. in an atmosphere with 5% CO2. The cells were routinely subcultured every 3 days to maintain growth at exponential phase. […] Cell pellet was resuspended in approximately 10× volume of cell culture medium and counted. Cell viability was determined to be >95% by trypan blue staining.
At the day of inoculation, female C57/B16 mice (n=15 total) were weighed and identified by marking the tail with numbers using a non-toxic permanent marker. […] Tumors were measured three times per week with digital calipers and tumors volumes, expressed in mm^3, were calculated with the following formula: Tumor volume (mm^3)=(a×b^2)/2 […]
Seven days after inoculation, mean tumor volume was about 100 mm^3. […] Body weight of the mice and tumor volume was recorded two or three times per week for a total of 22 days. […]

SMILES | inhibition of proteolytic processing of rhFGF21 by rhFAP (intact rhFGF21, Western blot) ([1]; 100 and 1000 nM, 16 h at 37° C.) | IC50 for FAP-mediated proteolytic cleavage of FGF21 ([1]; serial dilution, densitometry) | tumor volume vs vehicle [2]
N#C[C@@H]1CC(F)(F)CN1C(=O)CNC(=O)c1ccncc1-c1ccccc1 [Compound 13, (S)—N-(2-(2-cyano-4,4-difluoropyrrolidin-1-yl)-2-oxoethyl)-3-phenylisonicotinamide] | intact form of rhFGF21 is preserved | nanomolar range | –
N#C[C@@H]1CC(F)(F)CN1C(=O)CNC(=O)c1ccncc1C1CC1 [Compound 24, (S)—N-(2-(2-cyano-4,4-difluoropyrrolidin-1-yl)-2-oxoethyl)-3-cyclopropylisonicotinamide] | – | – | smaller volume of tumor

From patent US11780821B2, “Inhibitors of fibroblast activation protein” (Praxis Biotech LLC, priority 2017, dated 2023)
